Results: US20120035135A1, “Treatment of Transgenic Crops with Mixtures of Fiproles and Chloronicotinyls” (Bayer CropScience AG, priority 2008, published 2012)

Legend:
Type in all cases: in vivo
Spodoptera frugiperda [1] = experiment: Spodoptera frugiperda test (leaf application) on transgenic cotton; conditions: 24 h, after 1 d
Description: (§1) The expected activity for a given combination of two (or more) active compounds can be calculated (cf. COLBY, S. R.; “Calculating Synergistic and Antagonistic Responses of Herbicide Combinations”, Weeds 15, pages 20-22, 1967):′
(§2) If • X=the kill rate, expressed in % of the untreated control, when employing active compound A at an application rate of m ppm or m g/ha, • Y=the kill rate, expressed in % of the untreated control, when employing active compound B at an application rate of n ppm or n g/ha, • Z=the kill rate, expressed in % of the untreated control, when employing active compound C at an application rate of r ppm or r g/ha, • E=the kill rate, expressed in % of the untreated control, when employing active compounds A and B and C at application rates of m, n, and r ppm or m, n, and r g/ha, then for a combination of two ore more components
(§3) If the actual insecticidal kill rate is higher than the calculated one, the kill rates of the combination are super additive, i.e. a synergistic effect is present. In this case, the kill rate that is actually observed has to be higher than the value, calculated using the formula above, for the expected kill rate (E).
Transgenic cotton plants containing lepidoptera and herbicide resistance were treated with the respective products against the fall army worm (Spodoptera frugiperda).
(§4) After the specified period of time, the mortality in % is determined. 100% means that all the caterpillars have been killed; 0% means that none of the caterpillars have been killed.

Spodoptera frugiperda [2] = experiment: Spodoptera frugiperda test (leaf application) on transgenic corn; conditions: 96 h, after 4 d
Description: as §1, §2
as §3, with “(E). […]” for “(E).”
(§5) After the specified period of time, the mortality in % is determined. […]

Spodoptera frugiperda [3] = experiment: Spodoptera frugiperda test (drench application) on transgenic corn; conditions: soil, 96 h, after 4 d
Description: as §1, §2
as §3, with “(E). […]” for “(E).”
as §5

Spodoptera exigua = Spodoptera exigua test (leaf application) on transgenic corn; conditions: 96 h, after 4 d
Description: as §1, §2, §3
Transgenic corn plants containing lepidoptera, coleoptera and/or herbicide resistance were treated with the respective products against the beet army worm (Spodoptera exigua).
as §4

Compound | mortality at 20 ppm (Spodoptera frugiperda [1]) [%] | mortality at 4 ppm (Spodoptera frugiperda [2]; 4 ppm) [%] | mortality at 20 ppm (Spodoptera frugiperda [3]; 20 ppm) [%] | mortality at 4 ppm (Spodoptera exigua; 4 ppm) [%] | mortality at 100 ppm (Spodoptera frugiperda [2]; 100 ppm) [%] | mortality at 100 ppm (Spodoptera frugiperda [1]; 100 ppm) [%] | mortality at 100 ppm (Spodoptera frugiperda [3]; 100 ppm) [%] | mortality at 20 ppm (Spodoptera exigua; 20 ppm) [%] | mortality at 100 ppm (Spodoptera exigua; 100 ppm) [%]
CC[S+]([O-])c1c(C#N)nn(-c2c(Cl)cc(C(F)(F)F)cc2Cl)c1N (stereo not shown) [Ethiprole, ethiprole] | 0 |  |  |  |  |  |  |  | 
N#Cc1nn(-c2c(Cl)cc(C(F)(F)F)cc2Cl)c(N)c1[S+]([O-])C(F)(F)F (stereo not shown) [Fipronil, fipronil] | 0 | 15 | 0 | 0 |  |  |  |  | 
O=[N+]([O-])NC1=NCCN1Cc1ccc(Cl)nc1 [Imidacloprid, imidacloprid] |  |  |  |  | 15 | 50 | 0 | 0 | 10
